US7094773B2, “LTA4 hydrolase inhibitors” (Institut National de la Santa et de la rescherche Medicale …, priority 1999, dated 2006)
Where a name gives a salt, the structure may show the parent alone.

Molecular target: T1, human recombinant LTA4 hydrolase (Homo sapiens, UniProt P09960)
T1 construct: made in house; host or cells: E. coli JM109
T1 sequence (P09960 1-611): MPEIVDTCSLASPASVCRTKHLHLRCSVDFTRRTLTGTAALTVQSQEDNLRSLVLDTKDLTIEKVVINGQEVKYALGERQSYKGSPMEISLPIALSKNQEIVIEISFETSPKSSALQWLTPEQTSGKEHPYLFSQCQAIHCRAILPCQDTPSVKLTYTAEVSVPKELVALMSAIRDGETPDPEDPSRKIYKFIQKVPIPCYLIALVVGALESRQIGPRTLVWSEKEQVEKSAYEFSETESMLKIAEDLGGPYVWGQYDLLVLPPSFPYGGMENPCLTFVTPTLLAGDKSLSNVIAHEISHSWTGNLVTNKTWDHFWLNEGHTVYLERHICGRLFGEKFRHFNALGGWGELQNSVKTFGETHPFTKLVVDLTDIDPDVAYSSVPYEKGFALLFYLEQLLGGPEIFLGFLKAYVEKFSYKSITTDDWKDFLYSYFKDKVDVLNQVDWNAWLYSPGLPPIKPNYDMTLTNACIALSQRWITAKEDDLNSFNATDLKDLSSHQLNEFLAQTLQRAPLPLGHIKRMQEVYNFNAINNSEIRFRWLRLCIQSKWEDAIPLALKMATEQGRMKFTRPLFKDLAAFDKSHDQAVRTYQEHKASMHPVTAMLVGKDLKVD
Test: Inhibition of the aminopeptidase activity of recombinant LTA4 hydrolase (fluorimetric, Ala-AMC substrate)
Format: biochemical
Settings: in vitro
Experimental: The compounds were tested using human recombinant LTA4 hydrolase (Minami et al., FEBS Letters, 1988, 229: 279). The LTA4 hydrolase expressed by E. coli JM109 is purified mainly according to Minami et al., (J. Biol. Chem., 1987, 262: 13873).
The inhibition of the aminopeptidase activity of the enzyme is measured by means of a fluorimetric method in 96-well microplates. The recombinant enzyme (0.5 μg in 50 μl of 50 mM Tris-HCl pH 7.4) is preincubated for 10 minutes at 37° C. in the presence of inhibitor and of dithiothreitol (DTT, 10^−5 M). The substrate alanyl-amido-methylcoumarin (Ala-AMC, 25 μM-Tris HCl 50 mM, pH 7.4) is added and the incubation is continued for 15 minutes at 37° C. The release of AMC is measured by fluorimetry.

Ki [nM]	Structure (SMILES)
32	NC(CCCCOc1ccc(Cc2ccccc2)cc1)C(=O)O (racemic) [compound 51, 2-(RS)-amino-6-(4-benzylphenoxy)hexanoic acid hydrobromide]

System: not given
Test: not given
Settings: not given

melting point [°C]	Structure (SMILES)
199	Br.NC(CCCOc1ccc(Cc2ccccc2)cc1)C(=O)O (racemic)
162	Br.NC(CCCOc1ccc(Oc2ccccc2)cc1)C(=O)O (racemic)
100	Br.NC(CCCCCOc1ccc(Cc2ccccc2)cc1)C(=O)O (racemic)
185	Br.NC(CCCCOc1ccc(-c2ccccc2)cc1)C(=O)O (racemic)
135	Br.CCCCCCOc1ccc(OCCCCC(N)C(=O)O)cc1 (racemic)
120	Br.NC(CCCCCCOc1ccc(Cc2ccccc2)cc1)C(=O)O (racemic)
130	Br.NC(CCCCOc1ccc(Oc2ccccc2)cc1)C(=O)O (racemic)
